The source of these data is ChEMBL document CHEMBL4627312, “Anilinopyrazines as potential mitochondrial uncouplers” (Bioorg Med Chem Lett, 2020).

The structures appear in SMILES notation. Calls of active or inactive are those of the source. The rule behind the calls is not given here.

A short description of experiment [1]: Induction of mitochondrial uncoupling in rat L6 cells assessed as oxygen consumption rate measured after 45 to 90 mins by seahorse XFe96 analyser based assay. Format: mitochondria, Mitochondria.
Experiment [2] has as its system L6. In words: Induction of mitochondrial uncoupling in rat L6 cells assessed as oxygen consumption rate measured after 45 to 90 mins by seahorse XFe96 analyser based assay relative to control. As to conditions: Mitochondria.
Experiment [3] deals with L6. In words: Induction of mitochondrial uncoupling in rat L6 cells assessed as oxygen consumption rate at 0.01 to 50 uM measured after 45 to 90 mins by seahorse XFe96 analyser based assay. As to conditions: Mitochondria.

For `FC(F)(F)Oc1cccc(Nc2nccnc2Nc2cccc(OC(F)(F)F)c2)c1`, in experiment [1], the EC50 amounted to 12 µM. Further, the Emax in the experiment on L6 [2] was found to be 343%.

Turning to `FC(F)(F)Oc1ccc(Nc2nccnc2Nc2ccc(OC(F)(F)F)cc2)cc1`, the EC50 in experiment [1] was found to be 5.9 µM. The Emax in the experiment on L6 [2] turned out to be 258%.

Take `FC(F)(F)c1cc(Nc2nccnc2Nc2cc(C(F)(F)F)cc(C(F)(F)F)c2)cc(C(F)(F)F)c1`: the EC50 in experiment [1] worked out at 17 µM. The Emax in the experiment on L6 [2] is 148%.

`FC(F)(F)c1cccc(Nc2cnc(Nc3cccc(C(F)(F)F)c3)cn2)c1`: the result in the experiment with L6 [3] was inactive. In addition, the Emax with L6 [2] worked out at 140%.

In the case of `Fc1ccc(Nc2nccnc2Nc2ccc(F)cc2)cc1`, in the experiment with L6 [3], the outcome was inactive. For the same compound, in the experiment on L6 [2], the Emax was found to be 101%.

For `COc1ccccc1Nc1nc(Nc2ccccc2OC)nc(Nc2ccccc2OC)n1`, the result with L6 [3] was inactive. Besides, in the experiment with L6 [2], the Emax came out at 103%.

For `FC(F)(F)c1ccccc1Nc1nccnc1Nc1ccccc1C(F)(F)F`, in the experiment on L6 [2], the Emax was 104%.

Turning to `COc1ccccc1Nc1nccnc1Nc1ccccc1OC`, the Emax with L6 [2] is 102%.

In the case of `FC(F)(F)c1ccc(Nc2cncc(Nc3ccc(C(F)(F)F)cc3)n2)cc1`, the result with L6 [3] was inactive. For the same compound, the Emax in the experiment on L6 [2] was found to be 103%.

Consider `FC(F)(F)c1ccc(Nc2nccnc2Nc2ccc(C(F)(F)F)cc2)cc1`, for which, in experiment [1], the EC50 amounted to 2.5 µM. Moreover, the Emax with L6 [2] was 260%.

Consider `FC(F)(F)c1ccc(Nc2cnc(Nc3ccc(C(F)(F)F)cc3)cn2)cc1`, for which, in the experiment on L6 [3], the result was inactive. The Emax in the experiment with L6 [2] came out at 107%.

On to `Fc1ccc(C(F)(F)F)cc1Nc1nccnc1Nc1cc(C(F)(F)F)ccc1F`, for which, in the experiment with L6 [2], the Emax amounted to 100%.

As to `COc1cccc(Nc2nc(Nc3cccc(OC)c3)nc(Nc3cccc(OC)c3)n2)c1`, in the experiment on L6 [3], the result was inactive. Further, the Emax in the experiment on L6 [2] was 103%.

With `FC(F)(F)Oc1ccc(Nc2cncc(Nc3ccc(OC(F)(F)F)cc3)n2)cc1`, the outcome with L6 [3] was inactive. Also, in the experiment with L6 [2], the Emax is 107%.

In the case of `FC(F)(F)Oc1ccc(Nc2cnc(Nc3ccc(OC(F)(F)F)cc3)cn2)cc1`, the result in the experiment on L6 [3] was inactive. In the experiment with L6 [2], the Emax was 102%.

In the case of `COc1cccc(Nc2nccnc2Nc2cccc(OC)c2)c1`, the Emax in the experiment with L6 [2] was 101%.

With `Fc1cccc(Nc2nccnc2Nc2cccc(F)c2)c1`, in the experiment on L6 [3], the result was inactive. Moreover, the Emax with L6 [2] worked out at 106%.

As for `Fc1cccc(Nc2nccnc2Nc2cccc(F)c2F)c1F`, the result in the experiment on L6 [3] was inactive. For the same compound, the Emax with L6 [2] is 108%.

In the case of `Fc1ccc(Nc2nccnc2Nc2ccc(F)cc2F)c(F)c1`, the result with L6 [3] was inactive. For the same compound, the Emax in the experiment with L6 [2] came out at 109%.

As for `FC(F)(F)c1cccc(Nc2nc(Nc3cccc(C(F)(F)F)c3)nc(Nc3cccc(C(F)(F)F)c3)n2)c1`, the result with L6 [3] was inactive. Further, the Emax with L6 [2] worked out at 103%.

For the compound `FC(F)(F)c1cccc(Nc2nccnc2Nc2cccc(C(F)(F)F)c2)c1`, the EC50 in experiment [1] came to 3 µM. Further, the Emax in the experiment with L6 [2] was determined as 181%.

Regarding `FC(F)(F)Oc1cccc(Nc2cncc(Nc3cccc(OC(F)(F)F)c3)n2)c1`, the outcome with L6 [3] was inactive. For the same compound, the Emax with L6 [2] was determined as 105%.

On to `FC(F)(F)c1ccc(Nc2nc(Nc3ccc(C(F)(F)F)cc3)nc(Nc3ccc(C(F)(F)F)cc3)n2)cc1`, for which the result with L6 [3] was inactive. Moreover, the Emax in the experiment with L6 [2] was 100%.

Regarding `FC(F)(F)Oc1cccc(Nc2cnc(Nc3cccc(OC(F)(F)F)c3)cn2)c1`, the result in the experiment on L6 [3] was inactive. Besides, the Emax with L6 [2] came out at 101%.

Regarding `Fc1cc(C(F)(F)F)ccc1Nc1nccnc1Nc1ccc(C(F)(F)F)cc1F`, in experiment [1], the EC50 stood at 8.5 µM. Moreover, the Emax in the experiment with L6 [2] was determined as 164%.

In the case of `FC(F)(F)c1cc(Nc2cncc(Nc3cc(C(F)(F)F)cc(C(F)(F)F)c3)n2)cc(C(F)(F)F)c1`, in the experiment with L6 [3], the result was inactive. Further, in the experiment with L6 [2], the Emax worked out at 105%.

Take `FC(F)(F)Oc1ccccc1Nc1nccnc1Nc1ccccc1OC(F)(F)F`: the result in the experiment with L6 [3] was inactive. Besides, in the experiment with L6 [2], the Emax is 114%.

Turning to `Fc1ccccc1Nc1nc(Nc2ccccc2F)nc(Nc2ccccc2F)n1`, the result in the experiment with L6 [3] was inactive. In the experiment with L6 [2], the Emax turned out to be 102%.

Turning to `COc1ccc(Nc2nc(Nc3ccc(OC)cc3)nc(Nc3ccc(OC)cc3)n2)cc1`, the outcome in the experiment with L6 [3] was inactive. Further, the Emax in the experiment with L6 [2] was found to be 104%.

Broadly, the EC50 is the midpoint of the concentration-response curve. The Emax is the size of the effect at its maximum, as opposed to the concentration needed.
